Experimental data: ChEMBL document CHEMBL4270597, “Donepezil-butylated hydroxytoluene (BHT) hybrids as Anti-Alzheimer's disease agents with cholinergic, antioxidant, and neuroprotective properties” (Eur J Med Chem, 2018)
The source made the active and inactive calls. No cut-off for these calls is given here.

How the values were obtained:
Acetylcholinesterase [1] = biological target: Acetylcholinesterase (Electrophorus electricus, UniProt O42275); experiment: Inhibition of electric eel AChE using acetylthiocholine chloride as substrate incubated for 5 mins followed by substrate addition measured after 180 secs by Ellman's method
[2] = biological target: Cholinesterase (Equus caballus) (UniProt P81908); experiment: Inhibition of equine serum BuChE at 100 uM using butyrylthiocholine iodide as substrate incubated for 5 mins followed by substrate addition measured after 180 secs by Ellman's method relative to control
Acetylcholinesterase [3] = biological target: T1, Acetylcholinesterase (Homo sapiens, UniProt P22303); experiment: Inhibition of human erythrocyte AChE using acetylthiocholine chloride as substrate incubated for 5 mins followed by substrate addition measured after 180 secs by Ellman's method
Cholinesterase [4] = biological target: T2, Cholinesterase (Homo sapiens, UniProt P06276); experiment: Inhibition of human serum BuChE using butyrylthiocholine iodide as substrate incubated for 5 mins followed by substrate addition measured after 180 secs by Ellman's method
[5] = biological target: T3, Amine oxidase [flavin-containing] A (Homo sapiens, UniProt P21397); experiment: Inhibition of human MAO-A using p-tyramine as substrate incubated for 15 mins followed by substrate addition measured for 20 mins by fluorescence assay
T3 sequence (P21397 whole entry): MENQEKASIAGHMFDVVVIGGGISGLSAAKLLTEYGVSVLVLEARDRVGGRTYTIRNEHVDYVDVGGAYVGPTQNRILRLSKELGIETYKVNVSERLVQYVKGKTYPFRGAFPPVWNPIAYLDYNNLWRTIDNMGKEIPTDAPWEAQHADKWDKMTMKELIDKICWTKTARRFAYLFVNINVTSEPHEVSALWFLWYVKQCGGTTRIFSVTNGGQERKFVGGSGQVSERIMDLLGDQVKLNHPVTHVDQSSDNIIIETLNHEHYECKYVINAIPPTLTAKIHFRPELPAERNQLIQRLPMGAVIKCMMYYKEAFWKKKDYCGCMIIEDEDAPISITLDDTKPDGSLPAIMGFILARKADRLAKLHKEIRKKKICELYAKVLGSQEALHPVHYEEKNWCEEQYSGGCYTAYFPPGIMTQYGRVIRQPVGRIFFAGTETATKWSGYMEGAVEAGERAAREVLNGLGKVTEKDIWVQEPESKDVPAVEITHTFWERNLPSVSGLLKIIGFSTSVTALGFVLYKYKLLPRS

[6] = biological target: T4, Amine oxidase [flavin-containing] B (Homo sapiens, UniProt P27338); experiment: Inhibition of human MAO-B using p-tyramine as substrate incubated for 15 mins followed by substrate addition measured for 20 mins by fluorescence assay
T4 sequence (P27338 whole entry): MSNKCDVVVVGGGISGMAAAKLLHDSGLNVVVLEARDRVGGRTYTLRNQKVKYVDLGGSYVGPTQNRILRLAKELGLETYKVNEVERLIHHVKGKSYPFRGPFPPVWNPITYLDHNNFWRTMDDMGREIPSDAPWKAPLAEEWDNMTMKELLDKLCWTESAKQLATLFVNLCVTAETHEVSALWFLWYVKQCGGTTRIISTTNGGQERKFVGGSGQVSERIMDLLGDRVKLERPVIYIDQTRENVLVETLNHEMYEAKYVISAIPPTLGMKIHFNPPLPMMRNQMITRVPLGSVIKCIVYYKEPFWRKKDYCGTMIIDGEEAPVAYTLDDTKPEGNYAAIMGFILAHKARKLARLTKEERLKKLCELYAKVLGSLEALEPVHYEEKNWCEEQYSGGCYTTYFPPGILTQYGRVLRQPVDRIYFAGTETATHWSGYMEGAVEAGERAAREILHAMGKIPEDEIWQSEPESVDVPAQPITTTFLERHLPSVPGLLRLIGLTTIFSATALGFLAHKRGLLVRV

[7] = Antioxidant activity assessed as DPPH radical scavenging activity measured after 30 mins incubation in dark by UV-Visible spectrophotometric analysis; format: functional
[8] = Antioxidant activity assessed as ABTS radical cation scavenging activity by measuring trolox equivalent antioxidant capacity measured at 6 mins; format: functional
[9] = Antioxidant activity assessed as trolox equivalent of AAPH-induced radical scavenging activity preincubated for 15 mins followed by AAPH addition measured every minute for 120 mins by ORAC-FL based fluorescein assay; format: functional
[10] = biological target: Acetylcholinesterase (Electrophorus electricus) (UniProt O42275); experiment: Inhibition of electric eel AChE at 100 uM using acetylthiocholine chloride as substrate incubated for 5 mins followed by substrate addition measured after 180 secs by Ellman's method relative to control
Acetylcholinesterase [11] = biological target: T1, Acetylcholinesterase; experiment: Inhibition of human erythrocyte AChE at 100 uM using acetylthiocholine chloride as substrate incubated for 5 mins followed by substrate addition measured after 180 secs by Ellman's method relative to control
Cholinesterase [12] = biological target: T2, Cholinesterase; experiment: Inhibition of human serum BuChE at 100 uM using butyrylthiocholine iodide as substrate incubated for 5 mins followed by substrate addition measured after 180 secs by Ellman's method relative to control
[13] = Antioxidant activity assessed as DPPH radical scavenging activity at 100 uM measured after 30 mins incubation in dark by UV-Visible spectrophotometric analysis relative to control; format: functional
Homo sapiens = organism: Homo sapiens; experiment: Selectivity index, ratio of IC50 for human serum BuChE to IC50 for human erythrocyte AChE
BV-2 = experiment: Antineuroinflammatory activity in mouse BV2 cells assessed as inhibition of LPS-induced NO production at 10 to 30 uM after 24 hrs by Griess assay; format: functional, cell-based

T2 sequence (P06276 whole entry): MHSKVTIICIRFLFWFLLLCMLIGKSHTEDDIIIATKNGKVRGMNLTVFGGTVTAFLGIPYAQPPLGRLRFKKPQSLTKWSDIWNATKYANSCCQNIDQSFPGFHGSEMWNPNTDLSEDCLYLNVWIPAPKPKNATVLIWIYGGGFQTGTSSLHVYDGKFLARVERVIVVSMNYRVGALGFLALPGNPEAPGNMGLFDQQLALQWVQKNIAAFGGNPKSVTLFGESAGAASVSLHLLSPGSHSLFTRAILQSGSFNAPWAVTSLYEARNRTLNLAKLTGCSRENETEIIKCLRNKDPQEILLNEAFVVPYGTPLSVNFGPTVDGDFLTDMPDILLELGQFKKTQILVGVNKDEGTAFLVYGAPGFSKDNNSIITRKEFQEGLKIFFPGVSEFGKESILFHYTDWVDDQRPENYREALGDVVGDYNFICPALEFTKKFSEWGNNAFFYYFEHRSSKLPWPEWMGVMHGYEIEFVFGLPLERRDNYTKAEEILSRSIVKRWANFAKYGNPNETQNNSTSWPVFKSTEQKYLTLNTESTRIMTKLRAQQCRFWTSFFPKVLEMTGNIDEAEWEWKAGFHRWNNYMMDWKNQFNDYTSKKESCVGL
Cholinesterase (Equus caballus), sequence (P81908 whole entry): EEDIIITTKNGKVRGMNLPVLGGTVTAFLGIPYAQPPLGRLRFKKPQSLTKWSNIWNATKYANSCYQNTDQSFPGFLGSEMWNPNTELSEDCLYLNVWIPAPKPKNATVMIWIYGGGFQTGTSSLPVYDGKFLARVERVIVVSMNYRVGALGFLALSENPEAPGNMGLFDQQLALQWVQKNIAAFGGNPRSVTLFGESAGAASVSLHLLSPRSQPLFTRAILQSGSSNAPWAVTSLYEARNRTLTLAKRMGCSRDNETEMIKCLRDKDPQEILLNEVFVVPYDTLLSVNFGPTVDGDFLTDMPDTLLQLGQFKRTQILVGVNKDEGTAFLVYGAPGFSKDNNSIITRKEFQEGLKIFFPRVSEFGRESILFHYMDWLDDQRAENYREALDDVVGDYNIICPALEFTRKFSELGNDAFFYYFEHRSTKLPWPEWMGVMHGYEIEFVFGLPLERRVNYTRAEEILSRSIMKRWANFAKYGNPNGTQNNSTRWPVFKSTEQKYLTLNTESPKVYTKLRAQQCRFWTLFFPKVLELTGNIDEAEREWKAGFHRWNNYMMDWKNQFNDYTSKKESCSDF
Acetylcholinesterase (Electrophorus electricus), sequence (O42275 24-633 limits assumed): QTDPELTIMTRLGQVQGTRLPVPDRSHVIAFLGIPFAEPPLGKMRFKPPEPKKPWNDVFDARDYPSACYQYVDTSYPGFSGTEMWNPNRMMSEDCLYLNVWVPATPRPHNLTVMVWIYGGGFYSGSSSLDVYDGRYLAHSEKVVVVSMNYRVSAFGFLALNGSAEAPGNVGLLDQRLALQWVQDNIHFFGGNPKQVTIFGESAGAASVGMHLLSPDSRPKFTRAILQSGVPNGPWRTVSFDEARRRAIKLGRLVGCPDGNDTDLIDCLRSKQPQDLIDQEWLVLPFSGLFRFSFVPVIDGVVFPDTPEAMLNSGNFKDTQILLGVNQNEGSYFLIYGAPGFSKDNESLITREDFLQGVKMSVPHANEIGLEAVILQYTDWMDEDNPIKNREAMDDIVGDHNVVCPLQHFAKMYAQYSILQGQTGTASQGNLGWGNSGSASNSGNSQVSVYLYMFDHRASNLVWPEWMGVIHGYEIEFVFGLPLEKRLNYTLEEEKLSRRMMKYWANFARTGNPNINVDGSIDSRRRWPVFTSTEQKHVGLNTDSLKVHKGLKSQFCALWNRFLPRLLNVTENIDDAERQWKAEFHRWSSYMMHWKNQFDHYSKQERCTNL
Acetylcholinesterase (Electrophorus electricus, UniProt O42275), sequence (O42275 whole entry): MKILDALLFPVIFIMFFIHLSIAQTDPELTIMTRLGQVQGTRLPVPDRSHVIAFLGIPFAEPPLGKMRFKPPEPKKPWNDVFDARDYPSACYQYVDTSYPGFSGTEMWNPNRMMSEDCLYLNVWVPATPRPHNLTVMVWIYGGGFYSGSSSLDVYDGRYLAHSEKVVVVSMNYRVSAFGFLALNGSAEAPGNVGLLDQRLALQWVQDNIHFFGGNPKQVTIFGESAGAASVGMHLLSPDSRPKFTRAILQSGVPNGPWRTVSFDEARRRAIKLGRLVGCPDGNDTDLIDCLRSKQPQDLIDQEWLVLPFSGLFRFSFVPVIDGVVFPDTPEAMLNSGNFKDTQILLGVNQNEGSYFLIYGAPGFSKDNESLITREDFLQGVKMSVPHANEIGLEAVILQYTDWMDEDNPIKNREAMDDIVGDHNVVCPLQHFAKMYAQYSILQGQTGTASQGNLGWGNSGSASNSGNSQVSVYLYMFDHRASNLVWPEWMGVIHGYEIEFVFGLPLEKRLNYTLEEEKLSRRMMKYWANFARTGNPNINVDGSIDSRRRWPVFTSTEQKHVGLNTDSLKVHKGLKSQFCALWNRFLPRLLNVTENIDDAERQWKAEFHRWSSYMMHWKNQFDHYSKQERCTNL
T1 sequence (P22303 whole entry): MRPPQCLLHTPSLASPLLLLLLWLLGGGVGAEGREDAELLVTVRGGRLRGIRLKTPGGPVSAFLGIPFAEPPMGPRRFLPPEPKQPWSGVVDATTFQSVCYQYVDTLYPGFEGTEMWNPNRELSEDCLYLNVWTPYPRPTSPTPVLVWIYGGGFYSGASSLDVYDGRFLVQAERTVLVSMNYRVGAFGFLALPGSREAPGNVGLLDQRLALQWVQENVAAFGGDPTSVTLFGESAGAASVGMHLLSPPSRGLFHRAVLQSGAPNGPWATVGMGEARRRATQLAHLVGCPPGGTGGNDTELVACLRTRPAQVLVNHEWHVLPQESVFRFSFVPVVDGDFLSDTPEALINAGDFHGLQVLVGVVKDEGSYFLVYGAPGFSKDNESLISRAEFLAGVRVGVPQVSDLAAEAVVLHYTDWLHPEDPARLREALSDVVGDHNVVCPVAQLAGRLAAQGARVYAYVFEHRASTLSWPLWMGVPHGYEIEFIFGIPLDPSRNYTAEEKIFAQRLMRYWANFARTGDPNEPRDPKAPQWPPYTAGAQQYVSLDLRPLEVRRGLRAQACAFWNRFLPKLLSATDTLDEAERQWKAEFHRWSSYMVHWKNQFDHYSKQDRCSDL

| Compound | IC50 (Acetylcholinesterase [1]) [µM] | inhibition [2] [%] | IC50 (Acetylcholinesterase [3]) [µM] | IC50 (Cholinesterase [4]) | IC50 [5] [µM] | IC50 [6] [µM] | IC50 [7] [µM] | Activity (mmolequiv/mmol) [8] | Activity (mmolequiv/mmol) [9] | inhibition [10] [%] | inhibition (Acetylcholinesterase [11]) [%] | inhibition (Cholinesterase [12]) [%] | Activity [13] [%] | Ratio IC50 (Homo sapiens) | inhibition (BV-2) |
| --- | --- | --- | --- | --- | --- | --- | --- | --- | --- | --- | --- | --- | --- | --- | --- |
| CC(C)(C)c1cc(/C=C/C(=O)NCCC2CCN(Cc3ccccc3Cl)CC2)cc(C(C)(C)C)c1O | 0.59 | 35.5 | 2.44 | Not Active | 72.1 | 9.8 | 80.2 | 0.64 | 1.6 | – | – | – | – | – | – |
| CC(C)(C)c1cc(/C=C/C(=O)NCCC2CCN(Cc3cccc(Cl)c3)CC2)cc(C(C)(C)C)c1O | 0.74 | 41.5 | 2.54 | Not Active | 65.1 | 8.7 | 83.1 | 0.74 | 1.55 | – | – | – | – | – | – |
| CC(C)(C)c1cc(/C=C/C(=O)NCCC2CCN(Cc3ccc(Br)cc3)CC2)cc(C(C)(C)C)c1O | 1.32 | 38.9 | 3.81 | Not Active | 73.2 | 13.2 | 85.6 | 0.77 | 1.59 | – | – | – | – | – | – |
| COc1ccc(CN2CCC(CCNC(=O)/C=C/c3cc(C(C)(C)C)c(O)c(C(C)(C)C)c3)CC2)cc1 | 0.85 | 43.6 | 2.12 | Not Active | 72.5 | 6.7 | 61.2 | 0.82 | 1.66 | – | – | – | – | – | – |
| CC(C)(C)c1cc(C(=O)NCCC2CCN(Cc3ccccc3)CC2)cc(C(C)(C)C)c1O | – | 49.7 | – | – | 109 | 89.2 | – | 0.84 | 1.6 | 41.8 | 34.1 | 15.8 | 49.1 | – | – |
| CC(C)(C)c1cc(/C=C/C(=O)NCCC2CCN(Cc3cccc(F)c3)CC2)cc(C(C)(C)C)c1O | 0.68 | 37.9 | 1.33 | Not Active | 58.4 | 6.5 | 55.2 | 0.78 | 1.59 | – | – | – | – | – | – |
| CC(C)(C)c1cc(CCC(=O)NCCC2CCN(Cc3ccccc3)CC2)cc(C(C)(C)C)c1O | 2.31 | 42.4 | 3.42 | – | 94.1 | 46.9 | 54.5 | 0.69 | 1.33 | – | – | 36.5 | – | > 33 | – |
| Oc1ccc(/C=C/c2cc(O)cc(O)c2)cc1 [RESVERATROL] | – | – | – | – | – | – | 75.1 | 0.68 | 1.84 | – | – | – | – | – | Active |
| CC(C)(C)c1cc(/C=C/C(=O)NCC2CCN(Cc3ccccc3)CC2)cc(C(C)(C)C)c1O | – | 16.6 | – | – | 48.4 | 11.7 | 75.6 | 0.86 | 1.31 | 29.1 | 28.1 | 21.7 | – | – | – |
| CC(C)(C)c1cc(/C=C/C(=O)NCCC2CCN(Cc3ccc(F)cc3F)CC2)cc(C(C)(C)C)c1O | 0.56 | 31.2 | 1.78 | Not Active | 70.6 | 12.5 | 62.4 | 0.91 | 1.54 | – | – | – | – | – | – |
| CC(C)(C)c1cc(/C=C/C(=O)NCCC2CCN(Cc3ccc(F)cc3)CC2)cc(C(C)(C)C)c1O | 0.32 | 40.2 | 0.98 | Not Active | 59.6 | 11.1 | 57.5 | 0.88 | 1.51 | – | – | – | – | – | – |
| Cc1ccccc1CN1CCC(CCNC(=O)/C=C/c2cc(C(C)(C)C)c(O)c(C(C)(C)C)c2)CC1 | 0.87 | 55.9 | 2.51 | – | 69.3 | 7.2 | 65.3 | 0.75 | 1.61 | – | – | 30.2 | – | > 40 | – |
| Cc1cc(C(C)(C)C)c(O)c(C(C)(C)C)c1 [BUTYLATED HYDROXYTOLUENE] | – | – | – | – | – | – | 88.6 | 0.59 | 1.57 | – | – | – | – | – | Active |
| CC(C)(C)c1cc(/C=C/C(=O)NCCC2CCN(Cc3ccc(C#N)cc3)CC2)cc(C(C)(C)C)c1O | 0.77 | 48.1 | 2.78 | – | 78.2 | 13.9 | 79.5 | 0.84 | 1.62 | – | – | 41.2 | – | > 36 | – |
| CC(C)(C)c1cc(/C=C/C(=O)NCCC2CCN(Cc3cccc([N+](=O)[O-])c3)CC2)cc(C(C)(C)C)c1O | 1.21 | 42.6 | 3.46 | Not Active | 70.9 | 12.5 | 78.1 | 0.85 | 1.6 | – | – | – | – | – | – |
| CC(C)(C)c1cc(/C=C/C(=O)NCCC2CCN(Cc3ccc(F)c(F)c3)CC2)cc(C(C)(C)C)c1O | 0.42 | 39.9 | 1.62 | Not Active | 64.5 | 9.3 | 65.7 | 0.79 | 1.57 | – | – | – | – | – | – |
| Cc1ccc(CN2CCC(CCNC(=O)/C=C/c3cc(C(C)(C)C)c(O)c(C(C)(C)C)c3)CC2)cc1 | 0.72 | 41.4 | 2.01 | Not Active | 70.1 | 8.9 | 60.4 | 0.89 | 1.57 | – | – | – | – | – | – |
| CC(C)(C)c1cc(C(=O)CNC2CCN(Cc3ccccc3)CC2)cc(C(C)(C)C)c1O | – | 27.2 | – | – | 104 | 83.4 | – | 0.36 | 0.35 | 45 | 43.4 | 26.1 | 16.3 | – | – |
| CC(C)(C)c1cc(/C=C/C(=O)NC2CCN(Cc3ccccc3)CC2)cc(C(C)(C)C)c1O | – | 31.5 | – | – | 42.5 | 33.5 | 71.9 | 0.94 | 1.42 | 34.3 | 27.7 | 9.41 | – | – | – |
| CC(C)(C)c1cc(CCC(=O)NC2CCN(Cc3ccccc3)CC2)cc(C(C)(C)C)c1O | – | 28.7 | – | – | 90.2 | 70.4 | 80.3 | 0.68 | 1.62 | 34.4 | 30.2 | 12.3 | – | – | – |
